Results from patent publication US20070048372A1, “Method for treating non-inflammatory osteoarthritic pain” (SRZ Properties, Inc., priority 2005, published 2007).
Entries after “also recorded” stand apart in the source; their conditions may differ.

Legend:
[1] = test system: monosodium iodoacetate-induced mechanical hyperalgesia; assay: Monosodium iodoacetate-induced mechanical hyperalgesia (Randall-Selitto paw pressure); type: in vivo, rat (Wistar)
[2] = test system: monosodium iodoacetate-induced tactile allodynia; assay: Monosodium iodoacetate-induced tactile allodynia (von Frey filaments); type: in vivo, rat (Wistar)
[3] = test system: rat formalin paw test (late phase); assay: Rat formalin paw test (late phase): number of flinches and licking time; type: in vivo, rat (Rj: Wistar (Han))
Method: Rats were given an intraplantar injection of 5% formalin (50 μl) into the posterior left paw. This treatment induces a recognizable flinching and licking response of the affected paw in control animals. The number of flinches was counted for 15 minutes, beginning 20 minutes after injection of formalin. The time spent licking the affected paw was also recorded.
Male Rj: Wistar (Han) rats, 10 per group, weighing 100-130 g at the beginning of the experiments were studied per group. The test was performed blind.
Lacosamide (20 mg/kg), gabapentin (50 and 100 mg/kg), combinations of lacosamide (20 mg/kg) with gabapentin (50 and 100 mg/kg), and vehicle were administered i.p. 10 minutes before injection of formalin.
Lacosamide (10 and 20 mg/kg), morphine (2 and 4 mg/kg), combinations of lacosamide (10 and 20 mg/kg) with morphine (2 and 4 mg/kg), and vehicle were administered i.p. 10 minutes before injection of formalin.
Lacosamide (10 mg/kg), duloxetine (8 mg/kg), a combination of lacosamide (10 mg/kg) with duloxetine (8 mg/kg), and vehicle were administered i.p. 10 minutes before injection of formalin.
Lacosamide (10 and 20 mg/kg), memantine (4 and 8 mg/kg), combinations of lacosamide (10 and 20 mg/kg) with memantine (4 and 8 mg/kg), and vehicle were administered i.p. 10 minutes before injection of formalin.
Lacosamide (10 and 20 mg/kg), naproxen (8 and 16 mg/kg), combinations of lacosamide (10 and 20 mg/kg) with […] (8 and 16 mg/kg), and vehicle were administered i.p. 10 minutes before injection of formalin. Morphine (8 mg/kg) was included as a comparative treatment.

[4] = test system: muscle pressure hyperalgesia induced by TNF; assay: TNF-induced muscle pressure hyperalgesia (Randall-Selitto, withdrawal threshold to muscle pressure); type: in vivo, rat (Sprague Dawley); settings: for reversal of muscular mechanical hyperalgesia (withdrawal threshold to muscle pressure): 18 h after TNF i.m., 30 to 60 minutes after drug
Method: (§1) Adult male Sprague Dawley rats with a body weight of 250 g to 300 g were used (supplier: Charles River, Sulzfeld, Germany). Animals were group-housed (3 animals per cage) and maintained in a room with controlled temperature (21-22° C.) and a reversed light-dark cycle (12 h/12 h) with food and water available ad libitum. All experiments were approved by the Bavarian State animal experimentation committee and carried out in accordance with its regulations.
(§2) Recombinant rat tumor necrosis factor alpha (herein referred to as TNF) was obtained from R&D Systems, Minneapolis, Minn., U.S.A. TNF was diluted in 0.9% NaCl and used in a concentration of 1 μg in 50 μl. Injections were performed in short halothane narcosis with a 30 g needle bilaterally into the gastrocnemius or into the biceps brachii muscle. All rats were used to the behavioral tests before injections and baseline values were recorded over three test days.
Mechanical withdrawal thresholds to muscle pressure were measured with an analgesimeter (Ugo Basile, Comerio, Italy). The rat was allowed to crawl into a sock which helps the rat to relax. The hind limbs were positioned such that an increasing pressure could be applied onto the gastrocnemius muscle (maximum 250 g). The pressure needed to elicit withdrawal was recorded. Means of 3 trials for each hind limb were calculated (interstimulus interval of >30 sec). Only animals with a significant TNF effect were included for further analysis.
Rats were injected with TNF into the gastrocnemius muscle at 2 pm. Eighteen hours later, rats were tested for pressure hyperalgesia pre- and post-administration of the test drug. Rats were tested for pressure hyperalgesia 30 to 60 minutes after drug administration.
(§3) The rats, initially 10 per group, were treated with either 3, 10 or 30 mg/kg lacosamide, 2 mg/kg metamizol, 30 or 100 mg/kg pregabalin, 100 mg/kg gabapentin, or the NaCl vehicle, i.p. (intraperitoneally). Volume of i.p. injections was 0.5 ml. A pilot study was performed to confirm that i.m. (intramuscular) injection of 1 μg TNF into the gastrocnemius muscle was sufficient to induce pressure hyperalgesia.
(§4) Data are shown in graphs displaying means and standard errors of the means (SEM). Pre- and post-treatment data were compared using ANOVA (analysis of variance) and a Tukey post hoc test. Means of treatment groups were compared using a one-way ANOVA and Dunnett's post hoc test. Maximal possible effects (MPE) were calculated for all types of treatment.

[5] = test system: biceps muscle grip strength after TNF-induced muscle pain; assay: Biceps muscle grip strength after TNF-induced muscle pain; type: in vivo, rat (Sprague Dawley); settings: for reversal of TNF-induced reduction of grip strength: 6 h after TNF i.m., 30 to 60 minutes after drug
Method: as §1, §2
Grip strength of the forelimbs was tested with a digital grip force meter (DFIS series, Chatillon, Greensboro, NC, U.S.A.). The rat was positioned to grab the grid with the forelimbs and was gently pulled so that the grip strength could be recorded. Means of three trials were calculated. The effect of the TNF treatment was calculated for each animal separately and only animals with a significant TNF effect were included for further analysis.
Rats were injected with TNF into the biceps brachii muscle at 8 am. Six hours later, grip strength of the forelimbs was tested with a digital grip force meter. Test drug was administered, and grip strength was again tested after 30 to 60 minutes.
as §3, §4

COC[C@@H](NC(C)=O)C(=O)NCc1ccccc1 [Lacosamide, (R)-2-acetamido-N-benzyl-3-methoxypropionamide]
paw pressure withdrawal threshold compared to iodoacetate/vehicle treated animals (mechanical hyperalgesia) ([1]; day 3, 3 mg/kg p.o.): increase in paw pressure withdrawal threshold
mechanical hyperalgesia (paw pressure withdrawal threshold) ([1]; day 7, 3 mg/kg p.o.): reduced mechanical hyperalgesia
mechanical hyperalgesia (paw pressure withdrawal threshold) ([1]; day 7, 10 mg/kg p.o.): reduced mechanical hyperalgesia
mechanical hyperalgesia (paw pressure withdrawal threshold) ([1]; day 7, 30 mg/kg p.o.): reduced mechanical hyperalgesia
mechanical hyperalgesia (paw pressure withdrawal threshold) ([1]; day 14, 10 mg/kg p.o.): did not show a statistically significant effect
mechanical hyperalgesia during the post-inflammatory period ([1]; p.o., overall conclusion): inhibited mechanical hyperalgesia
tactile allodynia of iodoacetate-treated rats (von Frey) ([2]; day 3, 30 mg/kg p.o., 60 minutes before test): improved tactile allodynia
tactile allodynia of iodoacetate-treated rats (von Frey) ([2]; day 7, 30 mg/kg p.o., 60 minutes before test): improved tactile allodynia
tactile allodynia of iodoacetate-treated rats (von Frey) ([2]; day 14, 30 mg/kg p.o., 60 minutes before test): not on day 14
tactile allodynia of iodoacetate-treated rats (von Frey) ([2]; lower doses (3 and 10 mg/kg p.o.)): showed a trend for such improvement
Licking time % change (a) compared with vehicle control ([3]; Example 3, 20 mg/kg i.p. alone): −34% (a)
Licking time (seconds) mean ± SEM ([3]; Example 3, 20 mg/kg i.p. alone): 146.9 ± 23.8 NS (a) seconds
No. of flinches % change (a) compared with vehicle control ([3]; Example 3, 20 mg/kg i.p. alone): −33% (a)
No. of flinches mean ± SEM ([3]; Example 3, 20 mg/kg i.p. alone): 85.7 ± 14.3 NS (a)
decrease of the number of flinches as compared with vehicle controls ([3]; Example 3, 20 mg/kg i.p. alone): 33%
decrease of the time spent licking as compared with vehicle controls ([3]; Example 3, 20 mg/kg i.p. alone): 34%
Licking time % change (a) compared with vehicle control ([3]; Example 4, 10 mg/kg i.p. alone): −28% (a)
Licking time (seconds) mean ± SEM ([3]; Example 4, 10 mg/kg i.p. alone): 210.1 ± 22.7 (a) seconds
No. of flinches % change (a) compared with vehicle control ([3]; Example 4, 10 mg/kg i.p. alone): +22% (a)
No. of flinches mean ± SEM ([3]; Example 4, 10 mg/kg i.p. alone): 182.7 ± 25.9 NS (a)
decrease of the time spent licking as compared with vehicle controls ([3]; Example 4, 10 mg/kg i.p. alone): 28%
increase of the number of flinches as compared with vehicle controls ([3]; Example 4, 10 mg/kg i.p. alone): 22%
Licking time % change (a) compared with vehicle control ([3]; Example 4, 20 mg/kg i.p. alone): −56% (a)
Licking time (seconds) mean ± SEM ([3]; Example 4, 20 mg/kg i.p. alone): 128.2 ± 28.0 (a) seconds
No. of flinches % change (a) compared with vehicle control ([3]; Example 4, 20 mg/kg i.p. alone): −35% (a)
No. of flinches mean ± SEM ([3]; Example 4, 20 mg/kg i.p. alone): 97.2 ± 16.0 NS (a)
decrease of the number of flinches as compared with vehicle controls ([3]; Example 4, 20 mg/kg i.p. alone): 35%
decrease of the time spent licking as compared with vehicle controls ([3]; Example 4, 20 mg/kg i.p. alone): 56%
Licking time % change (a) compared with vehicle control ([3]; Example 5, 10 mg/kg i.p. alone): −30% (a)
Licking time (seconds) mean ± SEM ([3]; Example 5, 10 mg/kg i.p. alone): 185.2 ± 31.7 NS (a) seconds
No. of flinches % change (a) compared with vehicle control ([3]; Example 5, 10 mg/kg i.p. alone): +5% (a)
No. of flinches mean ± SEM ([3]; Example 5, 10 mg/kg i.p. alone): 158.2 ± 15.6 NS (a)
decrease of the time spent licking as compared with vehicle controls ([3]; Example 5, 10 mg/kg i.p. alone): 30%
effects on the number of flinches and the time spent licking ([3]; Example 5, 10 mg/kg i.p. alone): had no significant effects
Licking time % change (a) compared with vehicle control ([3]; Example 6, 10 mg/kg i.p. alone): −4% (a)
Licking time (seconds) mean ± SEM ([3]; Example 6, 10 mg/kg i.p. alone): 168.5 ± 23.9 NS (a) seconds
No. of flinches % change (a) compared with vehicle control ([3]; Example 6, 10 mg/kg i.p. alone): −31% (a)
No. of flinches mean ± SEM ([3]; Example 6, 10 mg/kg i.p. alone): 113.9 ± 23.2 NS (a)
decrease of the number of flinches as compared with vehicle controls ([3]; Example 6, 10 mg/kg i.p. alone): 31%
effect on the time spent licking as compared with vehicle controls ([3]; Example 6, 10 mg/kg i.p. alone): had no clear effects
Licking time % change (a) compared with vehicle control ([3]; Example 6, 20 mg/kg i.p. alone): −52% (a)
Licking time (seconds) mean ± SEM ([3]; Example 6, 20 mg/kg i.p. alone): 85.1 ± 19.1 (a) seconds
No. of flinches % change (a) compared with vehicle control ([3]; Example 6, 20 mg/kg i.p. alone): −48% (a)
No. of flinches mean ± SEM ([3]; Example 6, 20 mg/kg i.p. alone): 85.8 ± 14.4 (a)
decrease of the number of flinches as compared with vehicle controls ([3]; Example 6, 20 mg/kg i.p. alone): 48%
decrease of the time spent licking as compared with vehicle controls ([3]; Example 6, 20 mg/kg i.p. alone): 52%
Licking time % change (a) compared with vehicle control ([3]; Example 7, 10 mg/kg i.p. alone): −9% (a)
Licking time (seconds) mean ± SEM ([3]; Example 7, 10 mg/kg i.p. alone): 174.7 ± 20.4 NS (a) seconds
No. of flinches % change (a) compared with vehicle control ([3]; Example 7, 10 mg/kg i.p. alone): −13% (a)
No. of flinches mean ± SEM ([3]; Example 7, 10 mg/kg i.p. alone): 99.2 ± 16.6 NS (a)
effect on the time spent licking as compared with vehicle controls ([3]; Example 7, 10 mg/kg i.p. alone): had no clear effects
Licking time % change (a) compared with vehicle control ([3]; Example 7, 20 mg/kg i.p. alone): −59% (a)
Licking time (seconds) mean ± SEM ([3]; Example 7, 20 mg/kg i.p. alone): 78.9 ± 20.4 ***(a) seconds
No. of flinches % change (a) compared with vehicle control ([3]; Example 7, 20 mg/kg i.p. alone): −12% (a)
No. of flinches mean ± SEM ([3]; Example 7, 20 mg/kg i.p. alone): 100.3 ± 22.3 NS (a)
decrease of the time spent licking as compared with vehicle controls ([3]; Example 7, 20 mg/kg i.p. alone): 59%
effect on the number of flinches as compared with vehicle controls ([3]; Example 7, 10 and 20 mg/kg i.p. alone): did not clearly affect
MPE (maximal possible effect) on muscle pressure hyperalgesia, compared with vehicle ([4]; 10 mg/kg i.p.): significantly different from vehicle
MPE (maximal possible effect) on muscle pressure hyperalgesia, compared with vehicle ([4]; 30 mg/kg i.p.): significantly different from vehicle
reversal of muscular mechanical hyperalgesia (withdrawal threshold to muscle pressure) ([4]; 30 mg/kg i.p.): full reversal
reversal of muscular mechanical hyperalgesia (withdrawal threshold to muscle pressure) ([4]; 30 mg/kg i.p., listed as lacosamide): complete reversal
muscle hyperalgesia induced by TNF injection in the paw pressure test, dose dependence ([4]; 3, 10 and 30 mg/kg i.p.): dose-dependently improved
MPE (maximal possible effect) on biceps muscle grip strength, compared with vehicle ([5]; 10 mg/kg i.p.): significantly different from vehicle
reversal of TNF-induced reduction of grip strength ([5]; 10 mg/kg i.p.): significant reversal; also recorded: reversed the effect of TNF on the muscle
MPE (maximal possible effect) on biceps muscle grip strength, compared with vehicle ([5]; 30 mg/kg i.p.): significantly different from vehicle
reversal of TNF-induced reduction of grip strength ([5]; 30 mg/kg i.p.): significant reversal
